Assay results: paper PMC12444472, “BCI inhibits MKP3 by targeting the kinase-binding domain and disrupting ERK2 interaction” (The Journal of Biological Chemistry, 2025)
Entries after “also recorded” stand apart in the source; their conditions may differ.

Key:
MKP3^FL [1] = molecular target: T1, MKP3^FL (Homo sapiens, UniProt Q16828); experiment: Phosphatase activity toward pNPP in the presence of ERK2; type: biochemical
T1 construct: MKP3(1–381) (MKP3^FL); made in house; host or cells: Escherichia coli BL21(DE3)
T1 sequence (Q16828 1-381): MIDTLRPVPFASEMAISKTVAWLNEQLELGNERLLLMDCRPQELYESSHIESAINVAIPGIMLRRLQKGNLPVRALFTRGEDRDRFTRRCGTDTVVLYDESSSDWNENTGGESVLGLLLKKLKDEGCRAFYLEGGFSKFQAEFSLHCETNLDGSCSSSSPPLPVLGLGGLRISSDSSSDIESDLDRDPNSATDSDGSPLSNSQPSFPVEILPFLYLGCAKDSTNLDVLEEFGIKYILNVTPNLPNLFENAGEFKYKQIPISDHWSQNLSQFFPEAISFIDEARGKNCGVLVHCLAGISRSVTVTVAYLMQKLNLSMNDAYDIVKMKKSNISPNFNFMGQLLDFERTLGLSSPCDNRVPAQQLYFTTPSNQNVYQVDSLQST
Experimental: The phosphatase activity of MKP3 toward pNPP was measured using continuous spectrophotometric assays, either in the absence or the presence of ERK2 at a 1:1 M ratio with MKP3. Experiments were conducted at 25 °C in a reaction mixture with a total volume of 1.8 ml, containing 50 mM Mops (pH 7.0), 100 mM NaCl, and 0.1 mM EDTA. MKP3 (1 μM) was preincubated with varying concentrations of the inhibitor BCI for 5 min before initiating the reaction by adding pNPP at concentrations ranging from 0 to 14 mM. Continuous absorbance changes were recorded using a PerkinElmer LAMBDA 45 spectrophotometer equipped with a magnetic stirrer in the cuvette holder. The production of p-nitrophenol was monitored at 410 nm using an extinction coefficient of 18,000 M^-1 cm^-1.
(§1) Stock solutions of BCI (dissolved in DMSO) at different concentrations were prepared to maintain a constant DMSO concentration across all BCI concentrations in the phosphatase inhibition assays, thereby eliminating potential effects of varying DMSO levels on detection. Initial reaction rates were determined from the linear slope of progress curves, and the data were analyzed using nonlinear regression. Kinetic parameters (kcat and Km) were obtained by fitting the data to the Michaelis–Menten equation: v0 = kcat[E][S]/(Km + [S]). […]

MKP3^CD [2] = molecular target: T2, MKP3^CD (Homo sapiens, UniProt Q16828); experiment: Phosphatase activity toward pERK2 (coupled MESG assay); type: biochemical; conditions: initial velocities in absence and presence of BCI, n = 3
T2 construct: ^15N-labeled MKP3^1–154, MKP3^14–152, MKP3^204–350; made in house; host or cells: Escherichia coli BL21(DE3)
T2 sequence (Q16828 204-350): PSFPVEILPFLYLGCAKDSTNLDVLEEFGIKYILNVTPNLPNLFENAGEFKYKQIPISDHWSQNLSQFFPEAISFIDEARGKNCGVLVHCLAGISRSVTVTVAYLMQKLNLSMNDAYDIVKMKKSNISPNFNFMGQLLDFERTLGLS
Experimental: (§2) The phosphatase activity of MKP3 (0.5 μM) toward pERK2 (0.5 μM) was measured using a coupled assay, in which phosphate released from the substrate was transferred to 7-methyl-6-thioguanosine (MESG) by purine nucleoside phosphorylase. Assays were performed in a reaction mixture containing 50 mM Mops (pH 7.0), 100 mM NaCl, 0.1 mM EDTA, 100 μM MESG, 4 μM purine nucleoside phosphorylase, and varying concentrations of BCI, as indicated in Figure 5. Dephosphorylation was monitored by measuring absorbance changes at 360 nm, reflecting the conversion of MESG to 7-methyl-6-thioguanine in the presence of inorganic phosphate. Phosphate quantification was performed using an extinction coefficient of 11,200 M^-1 cm^-1 at 360 nm.
as §1

MKP3^FL [3] = molecular target: T1, MKP3^FL; experiment: as above; type: biochemical; conditions: BCI at concentration 50 times that of pERK2
Experimental: as §2, §1

MKP5^CD = molecular target: T3, MKP5^CD (Homo sapiens, UniProt Q9Y6W6); experiment: MST affinity measurement; type: binding
T3 construct: MKP5(320–467) (MKP5^CD); made in house; host or cells: Escherichia coli BL21(DE3)
T3 sequence (Q9Y6W6 320-467): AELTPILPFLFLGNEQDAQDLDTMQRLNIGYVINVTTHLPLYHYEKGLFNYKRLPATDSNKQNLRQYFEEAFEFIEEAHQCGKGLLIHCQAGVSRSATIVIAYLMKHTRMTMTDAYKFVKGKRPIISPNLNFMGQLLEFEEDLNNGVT
Experimental: (§3) MST measurements were performed using fluorescently labeled proteins and the inhibitor BCI (CAS: 1245792-51-1; TargetMol) on a Monolith instrument (NanoTemper Technologies). The RED–Tris–NTA second-generation dye was dissolved in MST buffer (20 mM Hepes, pH 7.4, 200 mM NaCl, and 0.05% Tween-20) to prepare a 5 μM stock solution. Fluorescent labeling of MKP proteins followed the standard protocol of the MO-L018 RED–Tris–NTA protein labeling kit, leveraging the His-tag–dye interaction.
(§4) The BCI compound was prepared as a 600 to 750 μM stock solution in MST buffer with 10% DMSO to enhance solubility, followed by a 16-point serial dilution. The diluted BCI solutions were thoroughly mixed with labeled MKP proteins (50 nM) at a 1:1 volume ratio, yielding a final volume of 10 μl. The reaction mixtures were incubated in the dark for 10 min at room temperature before being loaded into standard glass capillaries. Measurements were carried out on the Monolith instrument (100% LED, 40% IR laser power) with a 20 s laser on time. The normalized fluorescence values from triplicate measurements were averaged at each concentration and fitted to a 1:1 binding model using the KD model in MO.Affinity software (v3.0.5, NanoTemper Technologies) to determine the binding affinities between MKP proteins and the BCI inhibitor. […]

MKP3^CD [4] = molecular target: T2, MKP3^CD; experiment: MST affinity measurement; type: binding
Experimental: as §3, §4

ERK2-induced MKP3 activity relative to its initial level (MKP3^FL [1]; BCI at molar concentration 20 times that of ERK2): one-seventh
effect on MKP3's Michaelis constant (Km) for pNPP (MKP3^FL [1]; ERK2 at 1:1 with MKP3^FL): did not significantly alter
effect on MKP3^CD activity toward pERK2 (MKP3^CD [2]): no effect
extension of pERK2 dephosphorylation time (MKP3^FL [3]): more than 20 fold
binding by MST (MKP5^CD): no interaction was detected
SMILES: O=C1/C(=C/c2ccccc2)C(NC2CCCCC2)c2ccccc21 (stereo not drawn) [BCI, (E)-2-benzylidene-3-(cyclohexylamino)-2,3-dihydro-1H-inden-1-one]
binding by MST (MKP3^CD [4]): no detectable binding; also recorded: no binding was detected
